Laboratory results published in US20250205316A1, “COLLOIDAL FIBRIN NANOPARTICLE COMPOSITIONS AND USES” (NORTH CAROLINA STATE UNIVERSITY, priority 2023, published 2025).
Where two headings read alike, the source gives them in different places.

What was measured:
[1] = test system: HUVECs and HLFs; test: Microfluidic vasculogenesis assay with free tazarotene; format: cell-based, human
Experimental: The effects of tazarotene dosage on vascular network formation were investigated through the use of an established microfluidic vasculogenesis model (FIG. 12A). HUVECs and HLFs were embedded in 2 mg/mL human fibrin gels made 25 mM HEPES buffer and 0.5 U/mL thrombin. Media channels in the microdevice (FIG. 12A) were filled with HUVEC media supplemented with free tazarotene. Daily media changes and brightfield imaging were completed until cells were fixed with 4% paraformaldehyde at 1 week after seeding. Cells were permeabilized with 0.3% Triton X-100 (Sigma), immunostained with PEKAM-1 antibody (ThermoFisher), and stained with phalloidin (Invitrogen) and DAPI (Invitrogen) in order to visualize networks of both HUVECs and HLFs. Imaging was performed using a confocal microscope with a 10× objective. At least 3 devices were imaged for each experimental group and 3 images were taken per device. ImageJ was used to quantify vascular network characteristics (average segment length, average segment width, average number of branch points, and total endothelial area).

[2] = test system: HUVECs; test: HUVEC morphology and attachment on tazarotene-loaded thin films; format: cell-based, human
Experimental: The effects of tazarotene released from bulk fibrin gels on individual cellular morphology was determined through the low-density culture of HUVECs on thin films of loaded fibrin gels. Fibrin gels with varying concentrations of bulk tazarotene incorporated were allowed to polymerize between two clean glass coverslips for 1 hour, in order to form thin films. Thin films of 80 μL were made using 2 mg/ml human fibrinogen (Enzyme Research Laboratories), HEPES buffer (25 mM), and 0.5 U/ml human thrombin. Upon removal of one glass coverslip, the remaining glass and attached gel were placed within the well of a 12-well plate and rinsed with PBS. HUVECs (15,000 cells/well) were cultured for 16 hours, at which point they were fixed and stained. Images of cells were captured at 10× using an EVOS FL Auto Imaging System, with at least 5 images taken per thin film. In order to validate the nanoparticle release of tazarotene from FBNs, 80 μL FBN gel (330 M particles/mL) thin films were formed with different relative ratios of tazarotene-loaded to unloaded FBNs. All other elements of the procedure were the same.

[3] = fibrin gel thin films bulk loaded with tazarotene, 16 hours

In the case of `CCOC(=O)c1ccc(C#Cc2ccc3c(c2)C(C)(C)CCS3)nc1` [tazarotene], the “average network segment width” value [1] is reported as 36±11 μm, the average segment length ([1]; 20 nM free tazarotene, 1 week) is reported as 218±54 μm and the “average network segment width” value ([1]; 2 μM free tazarotene, 1 week) is reported as 23±4 μm. For the same compound, the average segment length ([1]; 2 μM free tazarotene, 1 week) was 226±40 μm, the endothelial network area ([1]; 2 μM free tazarotene, 1 week) was 130167±61886 μm^2 and the endothelial network area ([1]; 20 μM free tazarotene, 1 week) was 206,763±51,803 μm^2. For the same compound, the “average network segment width” value ([1]; 200 μM free tazarotene, 1 week) was 31±7 μm, the endothelial network area ([1]; 200 μM free tazarotene, 1 week) was 240,770±44,210 μm^2 and the endothelial network area ([1]; 2000 μM free tazarotene, 1 week) was 230,087±51,803 μm^2. The branch points ([1]; across tazarotene concentrations) was “No significant differences”, the “concentration with the most cell spreading” value [2, 3] was 200 nM and the “effect on cellular attachment” value [2, 3] was “no significant effect”. For the same compound, the cell circularity ([2]; with increasing concentrations) was “less circularity” and the cell perimeter ([2]; with increasing concentrations) was “greater perimeter”.
